In ChEMBL document CHEMBL1123274, “Azasteroids: structure-activity relationships for inhibition of 5 alpha-reductase and of androgen receptor binding” (J Med Chem, 1986) one finds IC50 data, which are given here for 34 molecules.

One experiment concerns the target T1, Androgen receptor (Rattus norvegicus, UniProt P15207).
T1 sequence (P15207 whole entry): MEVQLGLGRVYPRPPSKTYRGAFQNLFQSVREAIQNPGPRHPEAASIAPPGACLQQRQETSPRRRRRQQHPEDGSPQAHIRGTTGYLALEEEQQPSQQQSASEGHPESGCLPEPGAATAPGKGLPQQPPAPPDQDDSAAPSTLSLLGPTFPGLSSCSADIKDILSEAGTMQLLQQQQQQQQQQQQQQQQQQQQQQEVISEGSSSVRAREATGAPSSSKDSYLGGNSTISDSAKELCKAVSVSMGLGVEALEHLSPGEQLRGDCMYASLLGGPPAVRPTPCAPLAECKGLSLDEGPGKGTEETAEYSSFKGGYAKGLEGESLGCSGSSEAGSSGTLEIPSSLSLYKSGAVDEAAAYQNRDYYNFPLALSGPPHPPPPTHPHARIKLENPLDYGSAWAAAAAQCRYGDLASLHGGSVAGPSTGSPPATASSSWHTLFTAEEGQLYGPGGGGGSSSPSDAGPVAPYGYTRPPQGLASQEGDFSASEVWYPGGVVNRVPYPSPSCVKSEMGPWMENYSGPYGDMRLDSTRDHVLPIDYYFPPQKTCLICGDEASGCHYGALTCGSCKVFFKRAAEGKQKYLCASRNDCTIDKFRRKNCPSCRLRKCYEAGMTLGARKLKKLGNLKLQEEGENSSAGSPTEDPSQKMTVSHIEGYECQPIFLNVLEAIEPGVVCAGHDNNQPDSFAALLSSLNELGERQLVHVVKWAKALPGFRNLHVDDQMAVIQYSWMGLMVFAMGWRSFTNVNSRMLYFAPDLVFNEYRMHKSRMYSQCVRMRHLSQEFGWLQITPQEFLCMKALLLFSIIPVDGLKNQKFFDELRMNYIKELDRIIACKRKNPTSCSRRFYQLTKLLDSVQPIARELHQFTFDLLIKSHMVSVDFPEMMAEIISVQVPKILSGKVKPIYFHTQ
The experiment is described as follows: In vitro antagonist activity against rat prostatic androgen receptor (AR).

Experiment [1] deals with T2, Steroid 5-alpha-reductase (Rattus norvegicus, UniProt P24008+P31214).
T2 sequence (P24008 whole entry): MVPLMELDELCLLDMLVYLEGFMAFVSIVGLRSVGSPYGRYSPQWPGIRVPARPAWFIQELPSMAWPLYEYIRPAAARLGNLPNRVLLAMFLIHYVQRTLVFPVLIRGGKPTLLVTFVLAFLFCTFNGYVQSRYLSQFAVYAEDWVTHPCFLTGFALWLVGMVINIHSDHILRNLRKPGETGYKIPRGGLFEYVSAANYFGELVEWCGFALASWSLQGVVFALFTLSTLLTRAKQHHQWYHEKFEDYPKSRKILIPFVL
T2 sequence (P31214 whole entry): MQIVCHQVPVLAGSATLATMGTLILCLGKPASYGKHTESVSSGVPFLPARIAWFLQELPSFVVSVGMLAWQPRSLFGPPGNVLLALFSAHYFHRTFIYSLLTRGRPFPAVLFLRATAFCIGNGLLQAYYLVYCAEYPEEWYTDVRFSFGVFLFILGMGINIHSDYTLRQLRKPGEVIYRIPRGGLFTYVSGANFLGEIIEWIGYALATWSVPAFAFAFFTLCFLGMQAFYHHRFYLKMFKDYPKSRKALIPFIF
The experiment is described as follows: In vitro inhibitory activity against rat prostatic steroid 5-alpha-reductase. The experiment is classed as protein assay.

Each structure is given as a SMILES string.

For orientation: IC50 means the concentration needed to halve the response being measured. High values mean weaker potency, low ones greater potency. As for `CC(C)N(C(=O)[C@H]1CC[C@H]2[C@@H]3CC=C4NC(=O)CC[C@]4(C)[C@H]3CC[C@]12C)C(C)C`, the IC50 at Androgen receptor amounted to 14000 nM; in experiment [1] it was 86 nM.
In the same order, the values of `CCN(CC)C(=O)[C@H]1CC[C@H]2[C@@H]3CC[C@@H]4NC(=O)CC[C@]4(C)[C@H]3CC[C@]12C` (stereo in doubt; 79) are greater than 10000 nM and greater than 1000 nM.
In the same order, the values of `CCN(CC)C(=O)[C@H]1CC[C@H]2[C@@H]3CC[C@H]4N(C)C(=O)[C@@H](C)C[C@]4(C)[C@H]3CC[C@]12C` are 6100 nM and 20 nM.
For the molecule `CC(C(=O)[O-])[C@H]1CC[C@H]2[C@@H]3CC=C4N(C)C(=O)CC[C@]4(C)[C@H]3CC[C@]12C.[Na+]` (stereo partly drawn), the IC50 against Androgen receptor is 25000 nM; in experiment [1] it was 13 nM.
Turning to `CCC(C)C(=O)[C@H]1CC[C@H]2[C@@H]3CCC4NC(=O)C=C[C@]4(C)[C@H]3CC[C@]12C` (stereo partly drawn), the figures for the IC50 (against Androgen receptor; in experiment [1]) were greater than 100000 nM and 50 nM, respectively.
In the same order, the values of `CCC(C)C(=O)[C@H]1CC[C@H]2[C@@H]3CCC4N(C)C(=O)CC[C@]4(C)[C@H]3CC[C@]12C` (stereo partly drawn) are 420 nM and 1.9 nM.
In the same order, the values of `CN1C(=O)CC[C@@]2(C)C1CC[C@H]1[C@@H]3CC[C@H](C(=O)N4CCOCC4)[C@@]3(C)CC[C@@H]12` (stereo partly drawn) are 10000 nM and 27 nM.
In the same order, the values of `CCOC(=O)C[C@H]1CC[C@H]2[C@@H]3CC[C@H]4N(C)C(=O)CC[C@]4(C)[C@H]3CC[C@]12C` are 66 nM and 6.8 nM.
In the case of `CNC(=O)[C@H]1CC[C@H]2[C@@H]3CCC4N(C)C(=O)CC[C@]4(C)[C@H]3CC[C@]12C` (stereo partly drawn), the 50% inhibitory concentration (IC50) was 1100 nM at Androgen receptor and 38 nM in experiment [1].
With `COC(CNC(=O)[C@H]1CC[C@H]2[C@@H]3CCC4N(C)C(=O)CC[C@]4(C)[C@H]3CC[C@]12C)OC` (stereo partly drawn), the IC50 at Androgen receptor is 790 nM; in experiment [1], 4.6 nM.
For the molecule `CC(=O)[C@H]1[C@H](C)C[C@H]2[C@@H]3CCC4N(C)C(=O)CC[C@]4(C)[C@H]3CC[C@@]21C` (stereo partly drawn), the IC50 against Androgen receptor came to 290 nM; in experiment [1] it was 3.4 nM.
Take `CCCCCCCCCCCCCCCCCCNC(=O)[C@H]1CC[C@H]2[C@@H]3CCC4N(C)C(=O)CC[C@]4(C)[C@H]3CC[C@]12C` (stereo partly drawn): the IC50 against Androgen receptor is 17000 nM; in experiment [1] it was 20 nM.
In the same order, the values of `CCN(CC)C(=O)[C@H]1CC[C@H]2[C@@H]3CC[C@H]4N(C)C(=O)[C@H](O)C[C@]4(C)[C@H]3CC[C@]12C` are 3200 nM and 460 nM.
In the same order, the values of `CCN(CC)C(=O)[C@H]1CC[C@H]2[C@@H]3CC[C@H]4NC(=O)C=C[C@]4(C)[C@H]3CC[C@]12C` are greater than 100000 nM and 140 nM.
In the same order, the values of `CCN(CC)C(=O)CCC(C)[C@H]1CC[C@H]2[C@@H]3CCC4N(C)C(=O)CC[C@]4(C)[C@H]3CC[C@]12C` (stereo partly drawn) are 430 nM and 3.4 nM.
`CCN(CC)C(=O)[C@H]1CC[C@H]2[C@@H]3CC[C@H]4N(C)C(=O)[C@@H]5C[C@@H]5[C@]4(C)[C@H]3CC[C@]12C`: the IC50 against Androgen receptor was determined as 2700 nM; in experiment [1] it was 20 nM.
`CC(C)N(C(=O)[C@H]1CC[C@H]2[C@@H]3CC[C@H]4N(C)C(=O)CC[C@]4(C)[C@H]3CC[C@]12C)C(C)C`: the IC50 against Androgen receptor was found to be 14000 nM; in experiment [1], 3.5 nM.
In the same order, the values of `CCN(CC)C(=O)[C@H]1CC[C@H]2[C@@H]3CC[C@H]4N(NC=O)C(=O)CC[C@]4(C)[C@H]3CC[C@]12C` are greater than 10000 nM and 400 nM.
Consider `CCN(CC)C(=O)[C@H]1CCC[C@H]2[C@@H]3CC[C@H]4N(C)C(=O)OC[C@]4(C)[C@H]3CC[C@]12C`, for which the IC50 at Androgen receptor came out at 3700 nM; in experiment [1] it was 500 nM.
With `CCN(CC)C(=O)[C@H]1CC[C@H]2[C@@H]3CC[C@H]4N(C)C(=O)C[C@H](C#N)[C@]4(C)[C@H]3CC[C@]12C`, the IC50 at Androgen receptor was greater than 10000 nM; in experiment [1], greater than 1000 nM.
In the same order, the values of `C[C@]12CC[C@H]3[C@@H](CCC4NC(=O)CC[C@@]43C)[C@@H]1CC[C@@H]2C(=O)[O-].[K+]` (stereo partly drawn) are greater than 100000 nM and 25 nM.
In the same order, the values of `CCN(CC)C(=O)/C=C1\CC[C@H]2[C@@H]3CCC4N(C)C(=O)CC[C@]4(C)[C@H]3CC[C@]12C` (stereo partly drawn) are 930 nM and 2.5 nM.
`CC(C)(C)NC(=O)[C@H]1CC[C@H]2[C@@H]3CCC4NC(=O)CC[C@]4(C)[C@H]3CC[C@]12C` (stereo partly drawn): the IC50 against Androgen receptor was greater than 100000 nM; in experiment [1], 6.3 nM.
In the same order, the values of `C[C@]12CCC(=O)NC1CC[C@@H]1[C@@H]2CC[C@@]2(C)[C@H]1CC[C@@]21CCCO1` (stereo partly drawn) are 2500 nM and 93 nM.
In the same order, the values of `CNC(=O)[C@H]1CC[C@H]2[C@@H]3CC=C4N(C)C(=O)CC[C@]4(C)[C@H]3CC[C@]12C` are 400 nM and 140 nM.
In the same order, the values of `CC(=O)[C@H]1[C@@H](C)C[C@H]2[C@@H]3CCC4N(C)C(=O)CC[C@]4(C)[C@H]3CC[C@@]21C` (stereo partly drawn) are 8600 nM and 16 nM.
Take `CC(C)N(C(=O)[C@H]1CC[C@H]2[C@@H]3CCC4N(C)C(=O)C=C[C@]4(C)[C@H]3CC[C@]12C)C(C)C` (stereo partly drawn): the IC50 at Androgen receptor stood at 10000 nM; in experiment [1], 430 nM.
In the same order, the values of `CN1C(=O)CC[C@@]2(C)C1CC[C@H]1[C@@H]3CC[C@H](C(=O)NC(C)(C)C)[C@@]3(C)CC[C@@H]12` (stereo partly drawn) are 680 nM and 0.56 nM.
On to `CC(=O)N[C@@H]1CC[C@H]2[C@@H]3CCC4N(C)C(=O)CC[C@]4(C)[C@H]3CC[C@]12C` (stereo partly drawn), for which the figures for the IC50 (against Androgen receptor; in experiment [1]) were 40000 nM and 58 nM, respectively.
In the same order, the values of `CN1C(=O)C=C[C@@]2(C)C1CC[C@@H]1[C@@H]2CC[C@@]2(C)[C@H]1CC[C@@]21CCCO1` (stereo partly drawn) are 110 nM and 430 nM.
Take `CCN(CC)C(=O)[C@H]1CC[C@H]2[C@@H]3CC[C@H]4N(C)/C(=N/O)CC[C@]4(C)[C@H]3CC[C@]12C`: the figures for the IC50 (on Androgen receptor; in experiment [1]) were 540 nM and 100 nM, respectively.
In the same order, the values of `CC(CCC(=O)[O-])[C@H]1CC[C@H]2[C@@H]3CCC4N(C)C(=O)CC[C@]4(C)[C@H]3CC[C@]12C.[Na+]` (stereo partly drawn) are 21000 nM and 3.6 nM.
As to `C[C@H]1CC2N(C)C(=O)CC[C@]2(C)[C@H]2CC[C@@]3(C)[C@@H](CC[C@@]34CCCO4)[C@H]12` (stereo partly drawn), the IC50 on Androgen receptor was found to be 500 nM; in experiment [1] it was 4.6 nM.
In the same order, the values of `CCN(CC)C(=O)C(C)[C@H]1CC[C@H]2[C@@H]3CCC4N(C)C(=O)CC[C@]4(C)[C@H]3CC[C@]12C` (stereo partly drawn) are 48000 nM and 13 nM.
